Test results from patent US9693556B2, “Herbicidal pyridazinone derivatives” (SYNGENTA LIMITED, priority 2011, dated 2017).

Experiments:
Format in all cases: in vivo
[1] = tested on: Alopecurus myosuroides (ALOMY); test: Pre-emergence herbicidal glasshouse test on Alopecurus myosuroides; settings: pre-emergence; 1000 g/h; evaluated after 13 days
Experimental: (§1) Seeds of a variety of test species are sown in standard soil in pots (Alopecurus myosuroides (ALOMY), Setaria faberi (SETFA), Echinochloa crus-galli (ECHCG), Solanum nigrum (SOLNI), Amaranthus retoflexus (AMARE), Ipomoea hederacea (IPOHE)). After cultivation for one day (pre-emergence) or after 8 days cultivation (post-emergence) under controlled conditions in a glasshouse (at 24/16° C., day/night; 14 hours light; 65% humidity), the plants are sprayed with an aqueous spray solution derived from the formulation of the technical active ingredient in acetone/water (50:50) solution containing 0.5% Tween 20 (polyoxyethelyene sorbitan monolaurate, CAS RN 9005-64-5). Compounds are applied at 1000 g/h. The test plants are then grown in a glasshouse under controlled conditions in a glasshouse (at 24/16° C., day/night; 14 hours light; 65% humidity) and watered twice daily. After 13 days for pre and post-emergence, the test is evaluated for the percentage herbicidal damage caused to the plant. The biological activities are shown in the following table on a five point scale (5=80-100% damage; 4=60-79% damage; 3=40-59% damage; 2=20-39% damage; 1=0-19% damage).

Setaria faberi (SETFA) [2] = test: Pre-emergence herbicidal glasshouse test on Setaria faberi; settings: pre-emergence; 1000 g/h; evaluated after 13 days
Experimental: as §1

[3] = tested on: Echinochloa crus-galli (ECHCG); test: Pre-emergence herbicidal glasshouse test on Echinochloa crus-galli; settings: pre-emergence; 1000 g/h; evaluated after 13 days
Experimental: as §1

Solanum nigrum (SOLNI) [4] = test: Pre-emergence herbicidal glasshouse test on Solanum nigrum; settings: pre-emergence; 1000 g/h; evaluated after 13 days
Experimental: as §1

[5] = tested on: Amaranthus retoflexus (AMARE); test: Pre-emergence herbicidal glasshouse test on Amaranthus retoflexus; settings: pre-emergence; 1000 g/h; evaluated after 13 days
Experimental: as §1

[6] = tested on: Ipomoea hederacea (IPOHE); test: Pre-emergence herbicidal glasshouse test on Ipomoea hederacea; settings: pre-emergence; 1000 g/h; evaluated after 13 days
Experimental: as §1

[7] = tested on: Alopecurus myosuroides (ALOMY); test: Post-emergence herbicidal glasshouse test on Alopecurus myosuroides; settings: post-emergence; 1000 g/h; evaluated after 13 days
Experimental: as §1

Setaria faberi (SETFA) [8] = test: Post-emergence herbicidal glasshouse test on Setaria faberi; settings: post-emergence; 1000 g/h; evaluated after 13 days
Experimental: as §1

[9] = tested on: Echinochloa crus-galli (ECHCG); test: Post-emergence herbicidal glasshouse test on Echinochloa crus-galli; settings: post-emergence; 1000 g/h; evaluated after 13 days
Experimental: as §1

Solanum nigrum (SOLNI) [10] = test: Post-emergence herbicidal glasshouse test on Solanum nigrum; settings: post-emergence; 1000 g/h; evaluated after 13 days
Experimental: as §1

[11] = tested on: Amaranthus retoflexus (AMARE); test: Post-emergence herbicidal glasshouse test on Amaranthus retoflexus; settings: post-emergence; 1000 g/h; evaluated after 13 days
Experimental: as §1

[12] = tested on: Ipomoea hederacea (IPOHE); test: Post-emergence herbicidal glasshouse test on Ipomoea hederacea; settings: post-emergence; 1000 g/h; evaluated after 13 days
Experimental: as §1

SMILES	PRE Application ALOMY herbicidal damage (five point scale) [1]	PRE Application SETFA herbicidal damage (five point scale) (Setaria faberi (SETFA) [2])	PRE Application ECHCG herbicidal damage (five point scale) [3]	PRE Application SOLNI herbicidal damage (five point scale) (Solanum nigrum (SOLNI) [4])	PRE Application AMARE herbicidal damage (five point scale) [5]	PRE Application IPOHE herbicidal damage (five point scale) [6]	POST Application ALOMY herbicidal damage (five point scale) [7]	POST Application SETFA herbicidal damage (five point scale) (Setaria faberi (SETFA) [8])	POST Application ECHCG herbicidal damage (five point scale) [9]	POST Application SOLNI herbicidal damage (five point scale) (Solanum nigrum (SOLNI) [10])	POST Application AMARE herbicidal damage (five point scale) [11]	POST Application IPOHE herbicidal damage (five point scale) [12]
CCC(C)n1ncc(-c2ccc(S(C)(=O)=O)c(C3=NOCC3)c2C)c(O)c1=O (stereo not drawn) [Compound 1.003]	1 (1=0-19% damage)	1 (1=0-19% damage)	5 (5=80-100% damage)	4 (4=60-79% damage)	5 (5=80-100% damage)	3 (3=40-59% damage)	2 (2=20-39% damage)	5 (5=80-100% damage)	5 (5=80-100% damage)	5 (5=80-100% damage)	5 (5=80-100% damage)	5 (5=80-100% damage)
Cc1c(-c2cnn(C(F)F)c(=O)c2O)ccc(S(C)(=O)=O)c1C1=NOCC1 [Compound 1.005]	1 (1=0-19% damage)	5 (5=80-100% damage)	5 (5=80-100% damage)	3 (3=40-59% damage)	5 (5=80-100% damage)	1 (1=0-19% damage)	4 (4=60-79% damage)	5 (5=80-100% damage)	5 (5=80-100% damage)	5 (5=80-100% damage)	5 (5=80-100% damage)	5 (5=80-100% damage)
O=c1c(O)c(-c2ccc(C(F)(F)F)cc2C(F)(F)F)cnn1C(F)F [Compound 1.006]	2 (2=20-39% damage)	1 (1=0-19% damage)	2 (2=20-39% damage)	3 (3=40-59% damage)	5 (5=80-100% damage)	3 (3=40-59% damage)	1 (1=0-19% damage)	1 (1=0-19% damage)	1 (1=0-19% damage)	5 (5=80-100% damage)	5 (5=80-100% damage)	5 (5=80-100% damage)
Cc1c(-c2cnn(C3CCCC3)c(=O)c2O)ccc(S(C)(=O)=O)c1C1=NOCC1 [Compound 1.007]	1 (1=0-19% damage)	4 (4=60-79% damage)	4 (4=60-79% damage)	2 (2=20-39% damage)	3 (3=40-59% damage)	2 (2=20-39% damage)	4 (4=60-79% damage)	4 (4=60-79% damage)	5 (5=80-100% damage)	5 (5=80-100% damage)	5 (5=80-100% damage)	4 (4=60-79% damage)
Cc1c(-c2cnn(C3CC3)c(=O)c2O)ccc(S(C)(=O)=O)c1C1=NOCC1 [Compound 1.008, 2-cyclopropyl-5-[3-(4,5-dihydroisoxazol-3-yl)-2-methyl-4-methylsulfonyl-phenyl]-4-hydroxy-pyridazin-3-one]	4 (4=60-79% damage)	4 (4=60-79% damage)	5 (5=80-100% damage)	5 (5=80-100% damage)	4 (4=60-79% damage)	3 (3=40-59% damage)	5 (5=80-100% damage)	5 (5=80-100% damage)	5 (5=80-100% damage)	5 (5=80-100% damage)	5 (5=80-100% damage)	5 (5=80-100% damage)
CCn1ncc(-c2c(Cl)ccc(Cl)c2Cl)c(O)c1=O [Compound 1.010]	1 (1=0-19% damage)	1 (1=0-19% damage)	1 (1=0-19% damage)	1 (1=0-19% damage)	1 (1=0-19% damage)	1 (1=0-19% damage)	1 (1=0-19% damage)	1 (1=0-19% damage)	1 (1=0-19% damage)	4 (4=60-79% damage)	2 (2=20-39% damage)	4 (4=60-79% damage)
CCn1ncc(-c2c(Cl)cccc2Cl)c(O)c1=O [Compound 1.011]	1 (1=0-19% damage)	1 (1=0-19% damage)	1 (1=0-19% damage)	1 (1=0-19% damage)	1 (1=0-19% damage)	1 (1=0-19% damage)	2 (2=20-39% damage)	2 (2=20-39% damage)	2 (2=20-39% damage)	4 (4=60-79% damage)	4 (4=60-79% damage)	2 (2=20-39% damage)
Cc1c(-c2cnn(C(C)C)c(=O)c2O)ccc(S(C)(=O)=O)c1C1=NOCC1 [Compound 1.012]	4 (4=60-79% damage)	4 (4=60-79% damage)	5 (5=80-100% damage)	5 (5=80-100% damage)	5 (5=80-100% damage)	4 (4=60-79% damage)	5 (5=80-100% damage)	5 (5=80-100% damage)	5 (5=80-100% damage)	5 (5=80-100% damage)	5 (5=80-100% damage)	5 (5=80-100% damage)
